In patent US20230381168A1, “ADJUNCTIVE THERAPY FOR DEPRESSION” (ANeuroTech IP BV, priority 2020, published 2023):
“Also recorded” adds a separate entry of the source.

Columns and labels:
[1] = test system: patients suffering from moderate to severe MDD; assay: double-blind randomized multi-centre study, reported side effects (treatment emergent adverse effects); format: in vivo, human
[2] = test system: participants with major depressive disorder on continuing SSRI/SNRI; assay: placebo-controlled crossover study, PROMIS Sleep-related impairments questionnaire; format: in vivo, human
Procedure: Participants randomized to receive Treatment B were administered placebo containing drinkable water with […] flavor. Each study week the participants received 10 mL of their study medication in an amber glass bottle with dropper containing 200 droplets. […] The sleep-related impairments were assessed using the PROMIS Sleep-related impairments questionnaire, completed in the morning, midday and evening. […] A higher T-score reflects more sleep-related impairments during the day.

[3] = test system: participants with major depressive disorder on continuing SSRI/SNRI; assay: placebo-controlled crossover study, mood questionnaire; format: in vivo, human
Procedure: Participants randomized to receive Treatment B were administered placebo containing drinkable water with […] flavor. Each study week the participants received 10 mL of their study medication in an amber glass bottle with dropper containing 200 droplets. […] The mood of the participants was also be measured using a questionnaire which evaluated going from very happy, relaxed, excited, not worried and fearful at all (1) to very sad, not relaxed and excited at all, extremely worried and fearful (5). This questionnaire was completed in the morning and in the evening.

[4] = test system: MDD patients on antidepressant (partial responsive depression); assay: analysis of 62 MDD patients treated with adjunctive low-dose pipamperone; format: in vivo, human
[5] = test system: participants with major depressive disorder on continuing SSRI/SNRI; assay: placebo-controlled crossover study, sleep quality questionnaire; format: in vivo, human; conditions: all participants; 14 mg
Procedure: Participants randomized to receive Treatment B were administered placebo containing drinkable water with […] flavor. Each study week the participants received 10 mL of their study medication in an amber glass bottle with dropper containing 200 droplets. […] The sleep quality of the participants was measured using a scale going from very bad (1) to excellent (5). This questionnaire was only completed in the morning.

[6] = test system: subject with medical history of major depression and severe insomnia; assay: sleep analysis with full PSG battery (EEG, EMG, infra-red video and sound): clinical relevant restlessness events; format: in vivo, human; conditions: PT1, after 3 weeks pipamperone 20 mg/day with tDCS
Description: While during sleep the subject had no own noise making behaviour with an observed stable background noise level of +/−40 dB in the room, during these events the subject produced clear-cut enhancement of noise in the room with acute values of more than 50 dB combined with observable muscle activity (as observed by the EMG pattern), a state of being awake (as observed by the EEG) and an agitated behaviour (as observed by the clinical inspection infra-red video images).

[7] = test system: participants with major depressive disorder on continuing SSRI/SNRI; assay: placebo-controlled crossover study, PROMIS cognitive function questionnaire (subjective cognitive function); format: in vivo, human
Procedure: Eligible participants were admitted to the study center on Day 1 of Period 1 for first dosing. […] The cognitive function was measured using the PROMIS cognitive function questionnaire, completed in the morning, midday and evening. […] A higher T-score reflects a better cognitive functioning of the participant. […] Positive responders were further evaluated for the key secondary objective.

[8] = test system: participants with major depressive disorder on continuing SSRI/SNRI; assay: placebo-controlled crossover study, Karolinska Sleepiness Scale; format: in vivo, human
Procedure: Participants randomized to receive Treatment B were administered placebo containing drinkable water with […] flavor. Each study week the participants received 10 mL of their study medication in an amber glass bottle with dropper containing 200 droplets. […] The sleepiness of the participants was also be measured using the Karolinska Sleepiness Scale going from very sleepy, having great difficulty staying awake, fighting sleep (9) to extremely alert (1). This questionnaire was completed in the morning, midday and evening.

[9] = molecular target: T1, D4 receptor (Homo sapiens, UniProt P21917); conditions: cited from earlier work
T1 sequence (P21917 1-419): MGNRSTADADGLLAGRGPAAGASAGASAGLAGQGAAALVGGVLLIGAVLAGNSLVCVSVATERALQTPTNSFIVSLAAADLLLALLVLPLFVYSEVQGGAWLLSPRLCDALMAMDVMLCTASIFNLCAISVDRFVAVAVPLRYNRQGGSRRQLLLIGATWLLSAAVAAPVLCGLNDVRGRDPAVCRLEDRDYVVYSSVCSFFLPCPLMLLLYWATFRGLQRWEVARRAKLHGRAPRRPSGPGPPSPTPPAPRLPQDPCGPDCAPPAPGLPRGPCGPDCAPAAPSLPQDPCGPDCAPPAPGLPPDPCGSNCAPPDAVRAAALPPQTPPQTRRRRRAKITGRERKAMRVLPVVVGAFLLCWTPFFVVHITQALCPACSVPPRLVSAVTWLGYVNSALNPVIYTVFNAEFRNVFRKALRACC

[10] = test system: patients suffering from moderate to severe MDD; assay: double-blind randomized multi-centre study, MADRS assessed by the clinical rater; format: in vivo, human
Procedure: Cognitive enhancement and suicidal thoughts were evaluated respectively according to the Montgomery-Asberg Depression Rating Scale (MADRS) item 6 and item 10, after 10 weeks of study treatment as assessed by the clinical rater. […] Remission rate of reduced ability to read/communicate is defined as a MADRS Item 6 total score at Baseline (Day 1)>3 to (end of) Week 10≤3 at Week 10 as assessed by the clinical rater. […] Change from baseline in total score on MADRS after the indicated period of study treatment as assessed by the clinical rater. […] Remission is defined as a MADRS total score ≤10 at the indicated period as assessed by the clinical rater. An international, double-blind, centrally randomized (stratified), multi-centre study in more than 400 patients suffering from moderate to severe MDD in up to 40 sites in the USA was conducted. […] Study visits were conducted 1, 2, 3, 4, 6, 8 and 10 weeks after study treatment initiation. Possible withdrawal effects were assessed 1 week after study treatment withdrawal. After 2, 3, 4, 6, and 10 weeks, patients were evaluated.

[11] = molecular target: H1 receptor (Homo sapiens, UniProt P35367); conditions: cited from earlier work
Sequence of H1 receptor (P35367 whole entry): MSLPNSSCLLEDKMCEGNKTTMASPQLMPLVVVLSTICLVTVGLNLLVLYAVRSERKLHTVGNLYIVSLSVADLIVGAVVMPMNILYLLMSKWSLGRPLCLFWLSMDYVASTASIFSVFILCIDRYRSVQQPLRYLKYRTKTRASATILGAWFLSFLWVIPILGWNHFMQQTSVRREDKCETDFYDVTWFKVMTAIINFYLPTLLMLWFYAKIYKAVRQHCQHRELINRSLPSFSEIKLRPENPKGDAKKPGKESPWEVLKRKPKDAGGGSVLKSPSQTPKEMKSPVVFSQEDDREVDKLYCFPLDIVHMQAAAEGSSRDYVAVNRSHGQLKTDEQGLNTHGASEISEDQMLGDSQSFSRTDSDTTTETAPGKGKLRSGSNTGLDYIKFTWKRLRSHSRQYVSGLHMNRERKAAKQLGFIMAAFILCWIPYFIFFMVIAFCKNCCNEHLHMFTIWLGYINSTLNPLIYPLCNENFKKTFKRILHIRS

[12] = test system: mACh receptors; conditions: cited from earlier work
[13] = test system: subjects with a medical history of major depressive disorder and current insomnia; assay: cognitive performance by Mini Mental State Examination (MMSE) in treated case subjects PT1-PT3; format: in vivo, human
Procedure: During the last three weeks of this period, the subject was treated with transcranial anodal direct current stimulation (tDCS) in daily sessions of 30 minutes in the morning every day of the week except Saturday and Sunday. The tDCS dose was 2 mA. The anode was placed over the left dorsolateral prefrontal cortex and the cathode was placed over the right dorsolateral prefrontal cortex. […] This combined treatment was continued for a following 3 weeks.

[14] = prematurely discontinued patients
[15] = in particular after 6 weeks, even more so after 10 weeks

In the case of `CN(C)CCCC1(c2ccc(F)cc2)OCc2cc(C#N)ccc21` (stereo not shown) [Citalopram, citalopram], the “Decreased Appetite” value ([1]; all patients) is reported as 5.7%, the Diarrhoea ([1]; all patients) is reported as 9.7% and the Nausea ([1]; all patients) is reported as 16%. The Somnolence ([1]; all patients) was 11.4%, the “Decreased Appetite” value [1, 14] was 9% and the Diarrhoea [1, 14] was 11%. It also gave a Nausea [1, 14] of 18%, a Somnolence [1, 14] of 16% and a Vomiting [1, 14] of 9%.
For `NC(=O)C1(N2CCCCC2)CCN(CCCC(=O)c2ccc(F)cc2)CC1` [pipamperone, 1′-[3-(p-fluorobenzoyl)propyl]-[1,4′-bipiperidine]-4′-carboxamide], the “Sleep-related impairments, pipamperone 14 mg vs placebo” value [2] was “no clear difference”, the “Mood, pipamperone 14 mg vs placebo” value [3] was “no clear difference” and the “residual symptoms anhedonia and cognitive impairment” value ([4]; adjunctive 15 mg daily, MDD remittors) was “resolved”. For the same compound, the “patients still responding to adjunctive treatment” value ([4]; after at least more than 1 year of treatment, n=53 of 62) was 85%, the “tolerability of the treatment” value ([4]; long-term adjunctive treatment) was “extremely good tolerability” and the “patients in sustained remission” value ([4]; printed as 'of these responders', n=25) was 40%. The “cases that went into sustained remission after switch from existing adjunctive treatment” value ([4]; switched from quetiapine, amisulpride, risperidone or clozapine) was 6 out of these 8 cases, the “sleep quality compared with placebo” value [5] was “better quality of sleep” and the insomnia [6] was “improvement”. The “reduction of the clinical restlessness events” value [6] was 75%, the “number of clinical restlessness events at night after treatment” value ([6]; 4 before) was 1 and the “SUBJECTIVE COGNITIVE DECLINE: NON RESPONDER” value ([7]; 14 mg ad noctum add-on, 6 participants) was 17%. For the same compound, the “SUBJECTIVE COGNITIVE DECLINE: RESPONDER” value ([7]; 14 mg ad noctum add-on, 6 participants, Fisher exact test 0.0006, p<0.05) was 50%, the “subjective cognitive function versus placebo” value ([7]; 14 mg, 14 days, add-on to SSRI/SNRI) was “statistical significant (p<0.05) improvement” and the “improvement of cognitive functioning compared with placebo” value ([7]; the two participants with high MADRS item 6 score (XR0 and WL4), 14 mg) was “highest improvement”. For the same compound, the “Karolinska Sleepiness Scale, pipamperone 14 mg vs placebo” value [8] was “no clear difference”, the “affinity for the D4 receptor over the D2 receptor” value [9] was 15 fold and the “cognitive enhancement rate (remission of reduced ability to read/communicate, MADRS item 6) compared to citalopram” value ([10]; after 10 weeks of treatment) was “superior”. The “cognitive function (MADRS item 6, change from baseline) compared to citalopram” value ([10]; after 10 weeks, 15 mg QD) was “Statistically significant superior effect; also recorded: statistically significant enhancement”, the “suicidal thoughts (MADRS item 10, change from baseline) compared to citalopram” value ([10]; after 10 weeks, 15 mg QD) was “Statistically significant superior effect; also recorded: significant reduction” and the “decrease of severity of major depressive disorder (MADRS total score) compared to citalopram” value [10, 15] was “superior decrease”. The “proportion of patients in remission of major depressive disorder (MADRS total score ≤10) compared to citalopram” value [10, 15] was “superior increase”, the “Decreased Appetite” value ([1]; all patients) was 1.6% and the Diarrhoea ([1]; all patients) was 0.5%. The Nausea ([1]; all patients) was 7.7%, the Somnolence ([1]; all patients) was 6.6% and the “side effects overall (treatment emergent adverse effects, TEAE) compared to citalopram” value ([1]; all patients and prematurely discontinued patients) was “low amount of side effects”. The “Decreased Appetite” value [1, 14] was 0%, the Diarrhoea [1, 14] was 0% and the Nausea [1, 14] was 6%. For the same compound, the Somnolence [1, 14] was 8%, the Vomiting [1, 14] was 0% and the “side effects in subjects who discontinued the trial prematurely” value [1, 14] was “significantly fewer side effects”. The “affinity for the H1 receptor” value [11] was “low and likely insignificant”, the “affinity for the mACh receptors” value [12] was “low and likely insignificant” and the MMSE score ([13]; PT1, after 3 weeks pipamperone 20 mg/day combined with 15 sessions tDCS 2 mA, 27 before treatment) was 30. The MMSE total score ([13]; PT1, another 2 months after tDCS was terminated, pipamperone 20 mg/d continued) was 30 /30, the MMSE ([13]; PT2 (severe cognitive deterioration, 18/30 before), after 6 weeks of treatment) was 17 /30 and the MMSE ([13]; PT3 (28/30 before), after treatment) was 30 /30. For the same compound, the restored cognitive performance ([13]; PT3, continuous (6 months) intake of low dose pipamperone) was “sustained”.
